Values belong to the compound of their own block, whether it stands above or below them.
How the values were obtained:
[1] = tested on: ROCK; settings: cited from earlier work
[2] = molecular target: T1, protein kinase B (PKB), fusion protein PKB-PIF (Homo sapiens, UniProt P31751); assay: PKB kinase inhibitory activity, in vitro radiometric assay; assay type: biochemical; settings: (radiometric) binding assay, relative to the other enantiomer
T1 construct: made in house
Source text: The inhibition of protein kinase B (PKB) activity by compounds can be determined essentially as described by Andjelkovic et al. (Mol. Cell. Biol. 19, 5061-5072 (1999)) but using a fusion protein described as PKB-PIF and described in full by Yang et al (Nature Structural Biology 9, 940-944 (2002)). The protein is purified and activated with PDK1 as described by Yang et al. The peptide AKTide-2T (H-A-R—K—R-E-R-T-Y—S—F-G-H—H-A-OH) obtained from Calbiochem (#123900) is used as a substrate. A final concentration of 0.6 nM enzyme is used in a buffer that includes 20 mM MOPS pH 7.2, 30 μM ATP/γ^33P-ATP and 25 μM substrate. Compounds are added in DMSO solution to a final DMSO concentration of 2.5%. The reaction is allowed to proceed for 20 minutes before addition of excess orthophosphoric acid to quench activity. The reaction mixture is transferred to a phosphocellulose filter plate where the peptide binds and the unused ATP is washed away. After washing, scintillant is added and the incorporated activity measured by scintillation counting.

[3] = tested on: phosphorylation of GSK3β on serine 9 in U87MG cells; assay: Cell based phospho-Ser9 GSK3β ELISA (mechanistic cellular assay); settings: for activity in mechanistic cellular ELISA assay: result in words
Experimental: The effect on inhibiting PKB in U87MG cells is determined by the ability of compounds to inhibit phosphorylation of the direct downstream substrate GSK3β on serine 9. Cells are plated in 96 well plates and allowed to recover overnight prior to addition of the inhibitor compound for 1 hour. After 1 hour, cell are fixed and blocked with 3% paraformaldehyde, 0.25% gluteraldehyde, 0.25% Triton X100 and 5% Marvel in TBS-T. Following this cells are incubated with primary antibody directed to the phosphorylated form of GSK3β (Cell Signaling) overnight at 4° C. After washing, cells are incubated with secondary antibody using the DELFIA reagents (Eu—N1 anti-rabbit IgG antibody) for 1 h, and following enhancement plates are read on a time-resolved fluorescence reader at excitation 340 nm and emission 640 nm. All cells are obtained from ECACC (European Collection of Cell Cultures).
1. U87MG cells plated at 12,500 cells/well in 160 ul media/well in a 96 well plate
2. Incubate for 24 hours at 37° C.
3. Treat cells with the inhibitor and DMSO control
4. Incubate for 1 hour at 37° C.
5. Media flicked from the plate and blot on paper
6. 100 μl fixing solution added to each well (3% paraformaldehyde, 0.25% gluteraldehyde, 0.25% Triton X100)
7. Incubate for 30 minutes at 37° C.
8. Wash 1× with water/0.1% Tween20
9. Block with 100 μl 5% milk/TBS-T
10. Incubate for 30 minutes at 37° C.
11. 100 μl primary antibody diluted in 5% milk/TBS-T added to each well (CST #9336 Phospho-Ser9 GSK3β antibody used at 1:250)
• include a column control with no 1 ab—just 5% milk/TBS-T • can also include a column of Zymed rabbit IgG (02-6102-5 mg/mL) control diluted in 5% milk/TBS-T to the same concentration as the phospho-Ser9 GSK3β if required 12. Incubate overnight at 4° C. 13. Wash 3× with water/0.1% Tween20 14. 100 μl secondary antibody diluted in Delfia Assay Buffer added to each well (Delfia Eu—N1 anti-rabbit IgG antibody used at 0.30 μg/ml final conc) 15. Incubate for 1 hour at 37° C. 16. Wash 3× with water/0.1% Tween20 17. 100 μl Delfia Enhancement Solution added to each well 18. Shake on plate shaker for 15 minutes 19. Read on Delfia programme (excitation 340 nm−emission […])=Europium counts 20. Wash 1× with water/0.1% Tween 20 21. 200 μl BCA solution added per well (BCA with 1:50 Copper II Sulfate) 22. Incubate for 30 minutes at 37° C. 23. Read at absorbance 562 nm=protein concentration

[4] = molecular target: hERG K+ ion channel (Homo sapiens, UniProt Q12809); assay: hERG activity
Chain of hERG K+ ion channel (Q12809 whole entry): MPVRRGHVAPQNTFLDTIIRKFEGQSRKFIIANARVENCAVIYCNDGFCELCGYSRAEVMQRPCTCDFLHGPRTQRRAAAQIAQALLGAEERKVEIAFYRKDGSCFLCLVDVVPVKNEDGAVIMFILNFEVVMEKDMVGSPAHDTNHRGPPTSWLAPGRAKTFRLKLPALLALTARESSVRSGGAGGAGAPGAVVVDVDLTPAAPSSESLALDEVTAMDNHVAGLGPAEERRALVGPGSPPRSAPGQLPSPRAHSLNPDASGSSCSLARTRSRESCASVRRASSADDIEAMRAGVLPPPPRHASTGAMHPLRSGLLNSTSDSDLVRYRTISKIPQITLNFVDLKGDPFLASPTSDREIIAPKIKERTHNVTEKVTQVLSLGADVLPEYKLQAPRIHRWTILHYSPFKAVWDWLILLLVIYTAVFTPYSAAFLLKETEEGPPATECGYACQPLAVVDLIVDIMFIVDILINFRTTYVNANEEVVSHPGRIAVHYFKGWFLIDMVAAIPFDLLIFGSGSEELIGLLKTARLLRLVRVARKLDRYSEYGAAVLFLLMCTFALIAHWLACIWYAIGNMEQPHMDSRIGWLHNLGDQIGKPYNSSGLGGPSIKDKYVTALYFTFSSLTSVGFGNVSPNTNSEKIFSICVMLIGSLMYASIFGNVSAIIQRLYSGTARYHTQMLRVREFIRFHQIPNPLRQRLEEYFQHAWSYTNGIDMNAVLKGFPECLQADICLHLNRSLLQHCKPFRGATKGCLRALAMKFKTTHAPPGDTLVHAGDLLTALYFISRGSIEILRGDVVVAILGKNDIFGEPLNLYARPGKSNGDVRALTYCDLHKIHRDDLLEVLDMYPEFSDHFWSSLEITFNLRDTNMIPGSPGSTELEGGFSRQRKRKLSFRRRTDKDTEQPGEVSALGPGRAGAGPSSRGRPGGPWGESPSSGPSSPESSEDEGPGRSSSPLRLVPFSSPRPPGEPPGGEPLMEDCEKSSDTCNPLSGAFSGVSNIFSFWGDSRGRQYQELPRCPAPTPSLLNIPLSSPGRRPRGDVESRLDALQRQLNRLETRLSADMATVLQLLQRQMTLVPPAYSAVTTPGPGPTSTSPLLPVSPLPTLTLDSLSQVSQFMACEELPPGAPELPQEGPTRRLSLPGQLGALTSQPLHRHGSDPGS

[5] = molecular target: T2, CYP450 2C19 (Homo sapiens, UniProt P33261); assay: Potency against cytochrome P450 2C19 (Vivid screening kit); assay type: in vitro ADME; settings: tested at a concentration of 10 μM
T2 construct: purchased Invitrogen (Paisley, UK), Pan Vera Vivid screening kits; host or cells: baculosomes
Experimental: (§1) The potency of the compound of Example 1 against cytochrome P450 (CYP450) enzymes 1A2, 2C9, 2C19, 3A4 and 2D6 was determined using the Pan Vera Vivid C450 screening kits available from Invitrogen (Paisley, UK). The CYP450s were supplied in the form of baculosomes containing the CYP450 and NADPH reductase and the substrates used were the fluorescent Vivid substrates. The final reaction mixtures were as follows:
50 mM potassium phosphate, pH 8, 1% acetonitrile, 8 μM Blue vivid substrate, 100 μM NADP^+, 4 nM CYP450 2C19, 2.66 mM glucose-6-phosphate, 0.32 U/ml glucose-6-phosphate dehydrogenase.
(§2) Fluorescence was monitored for 20 minutes at 30 second intervals on a Fluoroskan fluorescence plate reader. The excitation and emission wavelengths were 390 nm and 460 nm for 1A2, 2C19 and 3A4, 390 nm and 485 nm for 2D6 and 485 nm and 530 nm for 2C9. Initial rates were determined from progress curves.
(§3) The test compound was made up in acetonitrile and tested against the CYP450s at a concentration of 10 μM.

[6] = molecular target: T3, CYP450 2C9 (Homo sapiens, UniProt P11712); assay: Potency against cytochrome P450 2C9 (Vivid screening kit); assay type: in vitro ADME; settings: tested at a concentration of 10 μM
T3 construct: purchased Invitrogen (Paisley, UK), Pan Vera Vivid screening kits; host or cells: baculosomes
T3 sequence (P11712 whole entry): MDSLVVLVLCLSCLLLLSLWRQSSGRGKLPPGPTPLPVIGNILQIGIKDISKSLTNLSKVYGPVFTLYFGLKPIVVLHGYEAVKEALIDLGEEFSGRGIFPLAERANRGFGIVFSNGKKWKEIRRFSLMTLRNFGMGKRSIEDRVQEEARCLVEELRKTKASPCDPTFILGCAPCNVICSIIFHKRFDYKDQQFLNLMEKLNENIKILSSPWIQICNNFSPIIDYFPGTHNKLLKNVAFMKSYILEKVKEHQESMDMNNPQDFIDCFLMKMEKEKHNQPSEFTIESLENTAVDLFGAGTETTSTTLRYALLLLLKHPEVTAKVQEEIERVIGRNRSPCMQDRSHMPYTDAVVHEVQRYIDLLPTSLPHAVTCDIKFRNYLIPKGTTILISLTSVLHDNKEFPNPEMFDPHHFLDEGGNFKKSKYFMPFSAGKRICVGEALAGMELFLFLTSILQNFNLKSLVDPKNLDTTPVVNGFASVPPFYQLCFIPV
Experimental: as §1
50 mM potassium phosphate, pH 8, 1% acetonitrile, 2 μM Green vivid substrate, 100 μM NADP^+, 8 nM CYP450 2C9, 2.66 mM glucose-6-phosphate, 0.32 U/ml glucose-6-phosphate dehydrogenase.
as §2, §3

[7] = molecular target: T4, P70S6 kinase (T412E) (Homo sapiens, UniProt P23443, T412E); assay: p70S6K radiometric assay; assay type: biochemical; settings: approximately 15 μM ATP
T4 construct: purchased Upstate 14-486
T4 sequence (P23443 1-421 T412E limits assumed): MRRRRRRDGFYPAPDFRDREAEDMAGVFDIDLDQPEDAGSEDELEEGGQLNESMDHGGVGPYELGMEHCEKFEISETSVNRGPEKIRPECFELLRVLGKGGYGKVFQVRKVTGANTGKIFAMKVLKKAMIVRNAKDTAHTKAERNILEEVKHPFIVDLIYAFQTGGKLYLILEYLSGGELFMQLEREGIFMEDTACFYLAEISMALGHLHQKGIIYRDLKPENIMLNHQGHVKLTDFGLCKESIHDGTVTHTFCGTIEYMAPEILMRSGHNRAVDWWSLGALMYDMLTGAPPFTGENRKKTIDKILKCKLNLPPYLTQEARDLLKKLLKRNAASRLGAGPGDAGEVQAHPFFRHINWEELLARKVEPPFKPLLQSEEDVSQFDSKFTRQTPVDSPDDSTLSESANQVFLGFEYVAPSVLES
Experimental: P70S6 enzyme is bought from Upstate and used at 2 nM in the assay.
The substrate S6 cocktail ([…]) is used at […] (Km has not been determined). In the phosphoryl transfer reaction, the ^33P-γ phosphate from ATP is transferred to the serine residue. The reaction mixture is transferred to a phosphocellulose filter plate where the peptide binds and the unused ATP is washed away. After washing, scintillant is added and the incorporated activity measured by scintillation counting.
S6 kinase substrate cocktail from Upstate (#20-122)
Assay Buffer 10 mM MOPS pH 7.0
• 0.1 mg/ml BSA • 0.001% Brij-35 • 0.5% glycerol • 0.2 mM EDTA • 10 mM MgCl2 • 0.01% β-mercaptoethanol • Made as a 10× stock, stored at […] in 2 ml aliquots • 15 μM ATP
Compounds—prepare a dilution curve in DMSO in a polypropylene 96 well plate to 40× final assay concentration (final DMSO 2.5%).
• 5 μl compound • 10 μl substrate mix • 10 μl enzyme mix
Final ATP concentration is approximately 15 μM. KM for ATP calculated to 47 uM radiometrically. Controls are “no compound” (DMSO only) and “no enzyme” (use 10 μl of the enzyme mix prior to adding enzyme). Cover with a plate seal (TopSeal A—Packard) or plastic lid from filter plate (moderate radiation barrier). Mix by gentle shaking. Incubate at room temperature for 50 minutes. Stop the reaction by adding 20 μl of 2% orthophosphoric acid. […]

[8] = molecular target: ROCK-II (h) (Homo sapiens, UniProt O75116); assay: ROCK-II (h) assay; assay type: biochemical; settings: below the limit of the assay
Chain of ROCK-II (h) (O75116 whole entry): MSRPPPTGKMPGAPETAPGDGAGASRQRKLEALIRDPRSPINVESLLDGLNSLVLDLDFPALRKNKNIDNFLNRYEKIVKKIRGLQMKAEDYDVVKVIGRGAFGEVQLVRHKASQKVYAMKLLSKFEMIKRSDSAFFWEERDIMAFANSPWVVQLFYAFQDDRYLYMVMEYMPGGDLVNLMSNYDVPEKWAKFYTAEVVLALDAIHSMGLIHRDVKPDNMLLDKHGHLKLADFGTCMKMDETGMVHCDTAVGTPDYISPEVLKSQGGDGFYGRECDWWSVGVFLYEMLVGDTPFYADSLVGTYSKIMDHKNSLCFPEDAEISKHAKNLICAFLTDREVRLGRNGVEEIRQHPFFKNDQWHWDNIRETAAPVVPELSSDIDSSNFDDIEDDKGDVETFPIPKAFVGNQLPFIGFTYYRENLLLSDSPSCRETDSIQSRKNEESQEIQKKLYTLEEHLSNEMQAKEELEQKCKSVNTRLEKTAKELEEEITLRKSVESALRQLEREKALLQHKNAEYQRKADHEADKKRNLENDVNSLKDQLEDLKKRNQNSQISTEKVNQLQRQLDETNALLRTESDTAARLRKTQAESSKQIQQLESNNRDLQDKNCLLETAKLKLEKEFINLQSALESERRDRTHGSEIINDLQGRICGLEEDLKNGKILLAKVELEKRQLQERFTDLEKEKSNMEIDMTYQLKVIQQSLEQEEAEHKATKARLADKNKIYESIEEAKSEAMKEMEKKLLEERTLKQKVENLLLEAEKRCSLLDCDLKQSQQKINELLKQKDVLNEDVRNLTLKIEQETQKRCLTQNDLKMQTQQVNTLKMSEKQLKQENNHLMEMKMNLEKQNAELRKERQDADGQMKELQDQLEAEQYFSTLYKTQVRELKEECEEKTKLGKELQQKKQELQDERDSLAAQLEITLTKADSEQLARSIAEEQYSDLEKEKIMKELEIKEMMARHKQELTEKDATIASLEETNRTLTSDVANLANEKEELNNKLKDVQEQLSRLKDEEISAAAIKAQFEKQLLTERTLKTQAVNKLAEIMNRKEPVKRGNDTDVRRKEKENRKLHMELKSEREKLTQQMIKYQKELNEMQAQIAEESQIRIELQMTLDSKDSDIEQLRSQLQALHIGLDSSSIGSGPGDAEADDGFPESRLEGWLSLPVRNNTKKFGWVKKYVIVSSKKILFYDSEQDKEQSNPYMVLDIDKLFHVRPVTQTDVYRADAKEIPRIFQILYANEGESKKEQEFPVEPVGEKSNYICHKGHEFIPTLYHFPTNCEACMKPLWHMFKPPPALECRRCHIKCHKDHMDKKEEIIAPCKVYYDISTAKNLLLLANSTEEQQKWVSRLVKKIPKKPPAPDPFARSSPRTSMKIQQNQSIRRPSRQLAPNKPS
Experimental: In a final reaction volume of 25 μl ROCK-II (h) (5-10 mU) is incubated with 50 mM Tris pH 7.5, 0.1 mM EGTA, 30 μM […], 10 mM MgAcetate and [γ-^33P-ATP] (specific activity approx. 500 cpm/pmol, concentration as required). The reaction is initiated by the addition of the MgATP mix. After incubation for 40 minutes at room temperature, the reaction is stopped by the addition of 5 μl of a 3% phosphoric acid solution. 10 μl of the reaction is then spotted onto a P30 filtermat and washed three times for 5 minutes in 75 mM phosphoric acid and once in methanol prior to drying and scintillation counting.

[9] = molecular target: T5, CYP450 2D6 (Homo sapiens, UniProt P10635); assay: Potency against cytochrome P450 2D6 (Vivid screening kit); assay type: in vitro ADME; settings: tested at a concentration of 10 μM
T5 construct: purchased Invitrogen (Paisley, UK), Pan Vera Vivid screening kits; host or cells: baculosomes
T5 sequence (P10635 whole entry): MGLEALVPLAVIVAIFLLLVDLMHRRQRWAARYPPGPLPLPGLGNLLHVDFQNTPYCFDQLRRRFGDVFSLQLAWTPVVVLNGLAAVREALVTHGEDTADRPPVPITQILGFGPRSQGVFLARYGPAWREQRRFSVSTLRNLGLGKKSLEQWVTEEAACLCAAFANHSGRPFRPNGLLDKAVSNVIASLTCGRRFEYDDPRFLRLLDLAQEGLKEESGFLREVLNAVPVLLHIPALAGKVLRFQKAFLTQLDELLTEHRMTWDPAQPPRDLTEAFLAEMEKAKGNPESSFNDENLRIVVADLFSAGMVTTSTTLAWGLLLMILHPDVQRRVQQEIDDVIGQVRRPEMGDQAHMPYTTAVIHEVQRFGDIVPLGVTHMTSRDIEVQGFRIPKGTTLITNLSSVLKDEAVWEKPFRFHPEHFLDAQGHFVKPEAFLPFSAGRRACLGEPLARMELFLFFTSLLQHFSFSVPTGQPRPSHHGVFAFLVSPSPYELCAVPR
Experimental: as §1
100 mM potassium phosphate, pH 8, 1% acetonitrile, 5 μM 2D6 Blue vivid substrate, 100 μM NADP^+, 16 nM CYP450 2D6, 2.66 mM glucose-6-phosphate, 0.32 U/ml glucose-6-phosphate dehydrogenase.
as §2, §3

[10] = molecular target: T6, CYP450 1A2 (Homo sapiens, UniProt P05177); assay: Potency against cytochrome P450 1A2 (Vivid screening kit); assay type: in vitro ADME; settings: tested at a concentration of 10 μM
T6 construct: purchased Invitrogen (Paisley, UK), Pan Vera Vivid screening kits; host or cells: baculosomes
T6 sequence (P05177 1-516): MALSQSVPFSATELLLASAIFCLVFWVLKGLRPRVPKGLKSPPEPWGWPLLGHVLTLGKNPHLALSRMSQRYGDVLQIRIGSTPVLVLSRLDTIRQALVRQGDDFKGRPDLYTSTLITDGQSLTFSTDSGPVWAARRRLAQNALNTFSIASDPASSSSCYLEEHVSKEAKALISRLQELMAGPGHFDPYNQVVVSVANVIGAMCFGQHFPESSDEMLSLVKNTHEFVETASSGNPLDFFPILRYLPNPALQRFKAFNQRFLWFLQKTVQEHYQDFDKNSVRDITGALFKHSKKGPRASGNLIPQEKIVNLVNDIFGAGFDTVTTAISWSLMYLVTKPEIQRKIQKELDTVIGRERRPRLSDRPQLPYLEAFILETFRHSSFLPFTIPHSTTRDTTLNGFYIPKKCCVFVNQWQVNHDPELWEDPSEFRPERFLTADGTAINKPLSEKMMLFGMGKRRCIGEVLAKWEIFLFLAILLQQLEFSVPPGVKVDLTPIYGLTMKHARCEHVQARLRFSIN
Experimental: as §1
100 mM potassium phosphate, pH 8, 1% acetonitrile, 2 μM 1A2 Blue vivid substrate, 100 μM NADP^+, 4 nM CYP450 1A2, 2.66 mM glucose-6-phosphate, 0.32 U/ml glucose-6-phosphate dehydrogenase.
as §2, §3

[11] = molecular target: T7, PKA catalytic domain (Homo sapiens, UniProt P17612); assay: PKA kinase inhibitory activity, radiometric assay; assay type: biochemical
T7 construct: using the PKA catalytic domain from Upstate Biotechnology (#14-440); purchased Upstate Biotechnology 14-440
Experimental: A final concentration of 1 nM enzyme is used in a buffer that includes 20 mM MOPS pH 7.2, 40 μM ATP/γ^33P-ATP and […] substrate. Compounds are added in dimethylsulphoxide (DMSO) solution to a final DMSO concentration of 2.5%. The reaction is allowed to proceed for 20 minutes before addition of excess orthophosphoric acid to quench activity. Unincorporated γ^33P-ATP is then separated from phosphorylated proteins on a Millipore MAPH filter plate. The plates are washed, scintillant is added and the plates are then subjected to counting on a Packard Topcount.

[12] = molecular target: PKB (Homo sapiens, UniProt P31751); assay: Activity against the kinase PKB (method not given); settings: compound and its acid addition salts
Chain of PKB (P31751 whole entry): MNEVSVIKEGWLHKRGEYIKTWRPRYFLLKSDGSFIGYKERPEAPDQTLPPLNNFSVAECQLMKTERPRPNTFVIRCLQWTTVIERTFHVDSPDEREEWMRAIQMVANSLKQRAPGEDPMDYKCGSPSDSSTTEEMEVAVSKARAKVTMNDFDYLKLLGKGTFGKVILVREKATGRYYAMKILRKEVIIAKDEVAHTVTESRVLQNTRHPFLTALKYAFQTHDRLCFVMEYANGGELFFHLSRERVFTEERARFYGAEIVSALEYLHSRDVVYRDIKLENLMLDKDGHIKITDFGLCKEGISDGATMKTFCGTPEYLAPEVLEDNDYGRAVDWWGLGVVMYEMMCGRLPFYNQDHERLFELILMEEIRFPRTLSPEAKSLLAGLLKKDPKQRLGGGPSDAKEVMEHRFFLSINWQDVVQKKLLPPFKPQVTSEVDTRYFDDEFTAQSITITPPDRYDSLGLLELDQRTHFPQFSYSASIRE

T1 sequence (P31751 with tags, fused parts or gaps limits assumed): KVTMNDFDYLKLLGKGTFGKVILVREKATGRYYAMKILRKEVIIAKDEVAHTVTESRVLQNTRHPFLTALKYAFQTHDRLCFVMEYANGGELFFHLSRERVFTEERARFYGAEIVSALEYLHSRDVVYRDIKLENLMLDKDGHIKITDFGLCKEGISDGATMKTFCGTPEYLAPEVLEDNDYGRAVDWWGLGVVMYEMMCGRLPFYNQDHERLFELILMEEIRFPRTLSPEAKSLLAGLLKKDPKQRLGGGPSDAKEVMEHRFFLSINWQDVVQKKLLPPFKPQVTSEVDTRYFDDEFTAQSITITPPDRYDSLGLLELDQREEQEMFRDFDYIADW

SMILES: C[C@@H](N)[C@H]1CC[C@H](C(=O)Nc2ccncc2)CC1 [Example Y-27632]
effective doses for the use of this compound [1]: approximately 30 uM

SMILES: NC[C@@H](c1ccc(Cl)cc1)c1ccc(-c2cn[nH]c2)cc1 (single isomer, unassigned) [Isomer C]
fold more active against PKB than its antipode [2]: about 10 fold
activity in mechanistic cellular ELISA assay [3]: essentially equipotent

SMILES: NC[C@H](c1ccc(Cl)cc1)c1ccc(-c2cn[nH]c2)cc1 (single isomer, unassigned) [Isomer D]
activity in mechanistic cellular ELISA assay [3]: essentially equipotent

SMILES: CNC[C@@H](c1ccc(Cl)cc1)c1ccc(-c2cn[nH]c2)cc1 (single isomer, unassigned) [Isomer A]
fold more active against PKB than its antipode [2]: 10 fold

Now from value to compound, other results behind:

IC50 [5]: > 10 µM
IC50 [6]: > 10 µM
IC50 [7]: 12 nM
IC50 [8]: < 10 nM
IC50 [9]: > 10 µM
IC50 [10]: > 10 µM
inhibition at 0.03 µM ([11]; at a concentration of 0.03 μM): 44%
SMILES: NC[C@@](O)(c1ccc(Cl)cc1)c1ccc(-c2cn[nH]c2)cc1 [compound of formula (I), (S)-2-amino-1-(4-chloro-phenyl)-1-[4-(1H-pyrazol-4-yl)-phenyl]-ethanol]
activity in mechanistic cellular ELISA assay [3]: good activity
hERG ion channel blocking activity [4]: negligible

IC50 ([3]; Homo sapiens, U-87 MG, U87MG cells, 1 hour with inhibitor): > 50 µM
IC50 ([11]; isolated enzyme, read-out: IC50 against PKA): 250 nM
SMILES: NC[C@](O)(c1ccc(Cl)cc1)c1ccc(-c2cn[nH]c2)cc1 [R-enantiomer, (R)-2-amino-1-(4-chloro-phenyl)-1-[4-(1H-pyrazol-4-yl)-phenyl]-ethanol]
activity in mechanistic cellular ELISA assay [3]: no measurable activity

activity against the kinase PKB [12]: have activity against the kinase PKB
SMILES: NCC(O)(c1ccc(Cl)cc1)c1ccc(I)cc1 (racemic) [compound of the formula (12), 2-amino-1-(4-chloro-phenyl)-1-[4-iodo-phenyl]-ethanol]
